Experiment [1] concerns the target T1, CXC chemokine receptor-4 (CXCR4) (Homo sapiens, UniProt P61073). Kind of experiment: competition with biotinylated TN14003 on MDA-MB-231 cells (immunofluorescence); supported by CXCL12-induced cAMP modulation assay in CXCR4-expressing cells (IC50 is for CXCR4/CXCL12 actions). Format: cell-based.
For experiment [2], the target named is T1, CXC chemokine receptor-4 (CXCR4).

T1 sequence (P61073 whole entry): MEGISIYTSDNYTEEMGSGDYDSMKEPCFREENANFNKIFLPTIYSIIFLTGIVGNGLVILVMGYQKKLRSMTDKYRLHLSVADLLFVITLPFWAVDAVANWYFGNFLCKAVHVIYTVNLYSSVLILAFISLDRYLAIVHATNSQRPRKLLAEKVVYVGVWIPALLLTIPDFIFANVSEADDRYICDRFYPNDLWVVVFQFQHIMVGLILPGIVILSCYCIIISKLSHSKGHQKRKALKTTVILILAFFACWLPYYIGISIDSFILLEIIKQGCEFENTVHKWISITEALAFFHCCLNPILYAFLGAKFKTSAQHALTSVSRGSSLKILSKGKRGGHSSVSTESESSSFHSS

With `c1cnc(NCc2ccc(CNc3ncccn3)cc2)nc1` [MSX-122, N,N′-(1,4-phenylenebis(methylene))dipyrimidin-2-amine], the IC50 in experiment [1] is about 10 nM. Regarding `c1cc(CN2CCCNCCNCCCNCC2)ccc1CN1CCCNCCNCCCNCC1` [AMD3100], the “reference antagonist; block of CXCL12-induced cAMP reduction in U87CD4CXCR4 cell” value in experiment [2] is on record as 1000 nM.

The values are drawn from PMC3317778, “Development of a Unique Small Molecule Modulator of CXCR4” (PLoS ONE, 2012).
